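How tested: cells in 96-well plates exposed to compound for 48 hours at five concentrations. Here, GI50 denotes the concentration required for 50% inhibition of growth.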 The source made the active and inactive calls. No stated cut-off is given here; in the data, active = GI50 up to about 1.1 µM and inactive = higher.
Columns and labels:
Experiment in all cases: growth of human tumour cells (NCI), 48 h
[1] = test system: 786-0
[2] = test system: A498
[3] = test system: A549
[4] = test system: ACHN
[5] = test system: BT-549
[6] = test system: CAKI-1
[7] = test system: CCRF-CEM
[8] = test system: COLO 205
[9] = test system: DU-145
[10] = test system: EKVX
[11] = test system: HCC 2998
[12] = test system: HCT-116
[13] = test system: HCT-15
[14] = test system: HL-60
[15] = test system: HOP-62
[16] = test system: HOP-92
[17] = test system: HT-29
[18] = test system: Hs-578T
[19] = test system: K562
[20] = test system: KM12
[21] = test system: LOX IMVI
[22] = test system: M14
[23] = test system: MCF7
[24] = test system: MDA-MB-231
[25] = test system: MDA-MB-435
[26] = test system: MDA-N
[27] = test system: MOLT-4
[28] = test system: Malme-3M
[29] = test system: NCI-H226
[30] = test system: NCI-H23
[31] = test system: NCI-H460
[32] = test system: NCI-H522
[33] = test system: OVCAR-3
[34] = test system: OVCAR-4
[35] = test system: OVCAR-5
[36] = test system: PC-3
[37] = test system: RPMI-8226
[38] = test system: RXF 393
[39] = test system: SF-268
[40] = test system: SF-295
[41] = test system: SF-539
[42] = test system: SK-MEL-28
[43] = test system: SK-MEL-2
[44] = test system: SK-MEL-5
[45] = test system: SK-OV-3
[46] = test system: SN12C
[47] = test system: SNB-19
[48] = test system: SR
[49] = test system: SW-620
[50] = test system: T47D
[51] = test system: TK-10
[52] = test system: U-251
[53] = test system: UACC-257
[54] = test system: UACC-62
[55] = test system: UO-31
[56] = test system: IGROV-1
[57] = test system: NCI/ADR-RES
[58] = test system: OVCAR-8
[59] = test system: SNB-75

COc1cccc2c(NNc3ccc(Cl)cc3)c3ccc([N+](=O)[O-])cc3nc12
GI50 [1]: 8.97 µM (inactive) | GI50 [2]: 12.9 µM (inactive) | GI50 [3]: 12.6 µM (inactive) | GI50 [4]: 5.68 µM (inactive) | GI50 [5]: 14 µM (inactive) | GI50 [6]: 2.28 µM (inactive) | GI50 [7]: 2.74 µM (inactive) | GI50 [8]: 21.6 µM (inactive) | GI50 [9]: 9.84 µM (inactive) | GI50 [10]: 12.5 µM (inactive) | GI50 [11]: 13.8 µM (inactive) | GI50 [12]: 7.28 µM (inactive) | GI50 [13]: 8.59 µM | GI50 [14]: 5.92 µM (inactive) | GI50 [15]: 10.9 µM (inactive) | GI50 [16]: 10.9 µM (inactive) | GI50 [17]: 14.2 µM (inactive) | GI50 [18]: 14.5 µM (inactive) | GI50 [19]: 11.7 µM (inactive) | GI50 [20]: 18.7 µM (inactive) | GI50 [21]: 11.3 µM (inactive) | GI50 [22]: 12.3 µM (inactive) | GI50 [23]: 19.2 µM (inactive) | GI50 [24]: 12.7 µM (inactive) | GI50 [25]: 29.7 µM (inactive) | GI50 [26]: 36.4 µM (inactive) | GI50 [27]: 1.92 µM (inactive) | GI50 [28]: 10.3 µM (inactive) | GI50 [29]: 13.9 µM (inactive) | GI50 [30]: 13.3 µM (inactive) | GI50 [31]: 4.92 µM (inactive) | GI50 [32]: 6.07 µM (inactive) | GI50 [33]: 12.5 µM (inactive) | GI50 [34]: 11.9 µM (inactive) | GI50 [35]: 22.9 µM (inactive) | GI50 [36]: 8.91 µM (inactive) | GI50 [37]: 14.3 µM (inactive) | GI50 [38]: 14.7 µM (inactive) | GI50 [39]: 12.7 µM (inactive) | GI50 [40]: 16.2 µM (inactive) | GI50 [41]: 17.7 µM (inactive) | GI50 [42]: 39.7 µM (inactive) | GI50 [43]: 13 µM (inactive) | GI50 [44]: 12.4 µM (inactive) | GI50 [45]: 15.1 µM (inactive) | GI50 [46]: 20.8 µM (inactive) | GI50 [47]: 14.8 µM (inactive) | GI50 [48]: 1.08 µM (active) | GI50 [49]: 13.8 µM (inactive) | GI50 [50]: 5.43 µM (inactive) | GI50 [51]: 10.3 µM (inactive) | GI50 [52]: 11.7 µM (inactive) | GI50 [53]: 19.2 µM (inactive) | GI50 [54]: 8.38 µM (inactive) | GI50 [55]: 5.33 µM (inactive)

CC(C)CC(=O)NC(Nc1ccc(S(=O)(=O)Nc2ncccn2)cc1)(C(F)(F)F)C(F)(F)F
GI50 [1]: > 100 µM (inactive) | GI50 [3]: > 100 µM (inactive) | GI50 [4]: > 100 µM (inactive) | GI50 [5]: > 100 µM (inactive) | GI50 [6]: > 100 µM (inactive) | GI50 [7]: > 100 µM (inactive) | GI50 [8]: > 100 µM (inactive) | GI50 [9]: > 100 µM (inactive) | GI50 [10]: > 100 µM (inactive) | GI50 [11]: > 100 µM (inactive) | GI50 [12]: > 100 µM (inactive) | GI50 [13]: > 100 µM | GI50 [14]: > 100 µM (inactive) | GI50 [15]: > 100 µM (inactive) | GI50 [16]: > 100 µM (inactive) | GI50 [17]: > 100 µM (inactive) | GI50 [18]: > 100 µM (inactive) | GI50 [56]: > 100 µM (inactive) | GI50 [19]: > 100 µM (inactive) | GI50 [20]: > 100 µM (inactive) | GI50 [21]: > 100 µM (inactive) | GI50 [22]: > 100 µM (inactive) | GI50 [24]: > 100 µM (inactive) | GI50 [25]: > 100 µM (inactive) | GI50 [26]: > 100 µM (inactive) | GI50 [27]: > 100 µM (inactive) | GI50 [28]: > 100 µM (inactive) | GI50 [29]: > 100 µM (inactive) | GI50 [30]: > 100 µM (inactive) | GI50 [31]: > 100 µM (inactive) | GI50 [32]: > 100 µM (inactive) | GI50 [57]: > 100 µM (inactive) | GI50 [33]: > 100 µM (inactive) | GI50 [34]: > 100 µM (inactive) | GI50 [35]: > 100 µM (inactive) | GI50 [58]: > 100 µM (inactive) | GI50 [36]: > 100 µM (inactive) | GI50 [37]: > 100 µM (inactive) | GI50 [38]: 20.4 µM (inactive) | GI50 [39]: > 100 µM (inactive) | GI50 [40]: > 100 µM (inactive) | GI50 [41]: > 100 µM (inactive) | GI50 [42]: > 100 µM (inactive) | GI50 [43]: > 100 µM (inactive) | GI50 [44]: > 100 µM (inactive) | GI50 [45]: > 100 µM (inactive) | GI50 [46]: > 100 µM (inactive) | GI50 [47]: > 100 µM (inactive) | GI50 [59]: > 100 µM (inactive) | GI50 [48]: > 100 µM (inactive) | GI50 [49]: > 100 µM (inactive) | GI50 [50]: > 100 µM (inactive) | GI50 [52]: > 100 µM (inactive) | GI50 [53]: > 100 µM (inactive) | GI50 [54]: > 100 µM (inactive) | GI50 [55]: > 100 µM (inactive)

O=S(=O)(O)Nc1ccc(-c2nc3ccccc3s2)cc1Cl
GI50 [1]: > 100 µM (inactive) | GI50 [2]: > 100 µM (inactive) | GI50 [3]: > 100 µM (inactive) | GI50 [4]: > 100 µM (inactive) | GI50 [5]: > 100 µM (inactive) | GI50 [6]: > 100 µM (inactive) | GI50 [7]: > 100 µM (inactive) | GI50 [8]: > 100 µM (inactive) | GI50 [9]: > 100 µM (inactive) | GI50 [10]: > 100 µM (inactive) | GI50 [11]: > 100 µM (inactive) | GI50 [12]: > 100 µM (inactive) | GI50 [13]: > 100 µM | GI50 [14]: > 100 µM (inactive) | GI50 [15]: > 100 µM (inactive) | GI50 [16]: > 100 µM (inactive) | GI50 [17]: > 100 µM (inactive) | GI50 [18]: > 100 µM (inactive) | GI50 [56]: 1.67 µM (inactive) | GI50 [19]: > 100 µM (inactive) | GI50 [20]: > 100 µM (inactive) | GI50 [21]: > 100 µM (inactive) | GI50 [22]: > 100 µM (inactive) | GI50 [24]: > 100 µM (inactive) | GI50 [25]: > 100 µM (inactive) | GI50 [26]: > 100 µM (inactive) | GI50 [28]: > 100 µM (inactive) | GI50 [29]: 14.6 µM (inactive) | GI50 [30]: > 100 µM (inactive) | GI50 [31]: > 100 µM (inactive) | GI50 [32]: > 100 µM (inactive) | GI50 [57]: > 100 µM (inactive) | GI50 [33]: > 100 µM (inactive) | GI50 [34]: > 100 µM (inactive) | GI50 [35]: 16.1 µM (inactive) | GI50 [58]: > 100 µM (inactive) | GI50 [36]: > 100 µM (inactive) | GI50 [37]: > 100 µM (inactive) | GI50 [38]: > 100 µM (inactive) | GI50 [40]: > 100 µM (inactive) | GI50 [41]: > 100 µM (inactive) | GI50 [42]: > 100 µM (inactive) | GI50 [43]: > 100 µM (inactive) | GI50 [44]: > 100 µM (inactive) | GI50 [45]: > 100 µM (inactive) | GI50 [46]: > 100 µM (inactive) | GI50 [47]: > 100 µM (inactive) | GI50 [59]: > 100 µM (inactive) | GI50 [48]: > 100 µM (inactive) | GI50 [49]: > 100 µM (inactive) | GI50 [50]: > 100 µM (inactive) | GI50 [51]: 8.09 µM (inactive) | GI50 [52]: > 100 µM (inactive) | GI50 [53]: > 100 µM (inactive) | GI50 [54]: > 100 µM (inactive) | GI50 [55]: > 100 µM (inactive)

O=c1[nH]nc(-c2ccccc2)n1/N=C/c1cccs1
GI50 [1]: 91.4 µM (inactive) | GI50 [2]: 54.2 µM (inactive) | GI50 [3]: 52.4 µM (inactive) | GI50 [4]: 70 µM (inactive) | GI50 [5]: 27.5 µM (inactive) | GI50 [6]: > 100 µM (inactive) | GI50 [7]: 43.1 µM (inactive) | GI50 [8]: 19.5 µM (inactive) | GI50 [9]: 32.3 µM (inactive) | GI50 [10]: 83.6 µM (inactive) | GI50 [11]: > 100 µM (inactive) | GI50 [12]: 36.7 µM (inactive) | GI50 [13]: 44.3 µM | GI50 [15]: > 100 µM (inactive) | GI50 [17]: 65.5 µM (inactive) | GI50 [18]: 56 µM (inactive) | GI50 [19]: 38.1 µM (inactive) | GI50 [20]: > 100 µM (inactive) | GI50 [21]: 43.2 µM (inactive) | GI50 [22]: > 100 µM (inactive) | GI50 [23]: 46.6 µM (inactive) | GI50 [24]: > 100 µM (inactive) | GI50 [25]: 28.2 µM (inactive) | GI50 [26]: 74.8 µM (inactive) | GI50 [27]: 31.6 µM (inactive) | GI50 [28]: 62.5 µM (inactive) | GI50 [29]: 59.4 µM (inactive) | GI50 [30]: 36.6 µM (inactive) | GI50 [31]: 36.3 µM (inactive) | GI50 [57]: 32.7 µM (inactive) | GI50 [33]: > 100 µM (inactive) | GI50 [34]: 21.7 µM (inactive) | GI50 [35]: > 100 µM (inactive) | GI50 [58]: 37.4 µM (inactive) | GI50 [36]: 66.1 µM (inactive) | GI50 [37]: 27.1 µM (inactive) | GI50 [38]: 37.3 µM (inactive) | GI50 [39]: > 100 µM (inactive) | GI50 [40]: 72.3 µM (inactive) | GI50 [41]: 95.5 µM (inactive) | GI50 [42]: 86.9 µM (inactive) | GI50 [43]: 99.5 µM (inactive) | GI50 [45]: > 100 µM (inactive) | GI50 [46]: 46.8 µM (inactive) | GI50 [47]: > 100 µM (inactive) | GI50 [59]: 49.7 µM (inactive) | GI50 [49]: 82 µM (inactive) | GI50 [50]: 38.1 µM (inactive) | GI50 [52]: > 100 µM (inactive) | GI50 [53]: 56.8 µM (inactive) | GI50 [54]: 46.7 µM (inactive) | GI50 [55]: 58.3 µM (inactive)
